Reference: the NIST ThermoML archive (doi:10.1016/j.fluid.2017.06.019)
± gives the expanded uncertainty stated by the source.

Settings: Coaxial cylinder method

CCC [propane]
thermal conductivity [W/m/K]
Settings | 365.72 K | 366.45 K
3595 kPa, Gas | – | 0.03694 ± 0.0023
3610 kPa, Gas | – | 0.0371 ± 0.0023
3880 kPa, Gas | – | 0.04193 ± 0.0026
3882 kPa, Gas | – | 0.04198 ± 0.0026
3908 kPa, Gas | – | 0.04282 ± 0.0027
3915 kPa, Gas | – | 0.04316 ± 0.0027
3920 kPa, Gas | – | 0.04339 ± 0.0027
3925 kPa, Gas | – | 0.04359 ± 0.0027
3930 kPa, Gas | – | 0.04383 ± 0.0027
3935 kPa, Gas | – | 0.04406 ± 0.0028
3937 kPa, Gas | – | 0.04421 ± 0.0028
3949 kPa, Gas | – | 0.04486 ± 0.0028
3950 kPa, Gas | – | 0.04487 ± 0.0028
3951 kPa, Gas | – | 0.04497 ± 0.003
3952 kPa, Gas | – | 0.04502 ± 0.0031
3953 kPa, Gas | – | 0.04507 ± 0.022
3954 kPa, Gas | – | 0.04513 ± 0.021
3955 kPa, Gas | – | 0.04847 ± 0.02
3956 kPa, Gas | – | 0.0498 ± 0.019
3957 kPa, Gas | – | 0.0512 ± 0.018
3958 kPa, Gas | – | 0.05294 ± 0.017
3959 kPa, Gas | – | 0.05452 ± 0.016
3960 kPa, Gas | – | 0.05651 ± 0.015
3961 kPa, Gas | – | 0.05848 ± 0.015
3962 kPa, Gas | – | 0.06058 ± 0.014
3963 kPa, Gas | – | 0.06307 ± 0.013
3964 kPa, Gas | – | 0.06573 ± 0.013
3965 kPa, Gas | – | 0.06816 ± 0.012
3966 kPa, Gas | – | 0.07114 ± 0.012
3967 kPa, Gas | – | 0.07411 ± 0.011
3968 kPa, Gas | – | 0.07748 ± 0.011
3969 kPa, Gas | – | 0.08195 ± 0.01
3970 kPa, Gas | – | 0.08706 ± 0.0099
3971 kPa, Gas | – | 0.09339 ± 0.015
3972 kPa, Gas | – | 0.09783 ± 0.014
3973 kPa, Gas | – | 0.1017 ± 0.013
3974 kPa, Gas | – | 0.108 ± 0.011
3975 kPa, Gas | – | 0.114 ± 0.0092
3976 kPa, Gas | – | 0.1185 ± 0.0084
3977 kPa, Gas | – | 0.1239 ± 0.0082
3978 kPa, Gas | – | 0.1288 ± 0.0082
3978 kPa, Liquid | 0.08613 ± 0.0083 | –
3979 kPa, Gas | – | 0.1341 ± 0.0085
3979 kPa, Liquid | 0.08495 ± 0.0083 | –
3980 kPa, Gas | – | 0.1393 ± 0.0088
3980 kPa, Liquid | 0.08381 ± 0.0083 | –
3981 kPa, Gas | – | 0.1449 ± 0.0092
3982 kPa, Gas | – | 0.1502 ± 0.0097
3983 kPa, Gas | – | 0.1559 ± 0.01
3984 kPa, Gas | – | 0.1614 ± 0.011
3985 kPa, Gas | – | 0.1661 ± 0.011
3985 kPa, Liquid | 0.07882 ± 0.0075 | –
3986 kPa, Gas | – | 0.1732 ± 0.011
3987 kPa, Gas | – | 0.1794 ± 0.012
3988 kPa, Gas | – | 0.1853 ± 0.014
3989 kPa, Gas | – | 0.1916 ± 0.015
3990 kPa, Gas | – | 0.1977 ± 0.016
3990 kPa, Liquid | 0.07478 ± 0.0069 | –
3991 kPa, Gas | – | 0.2045 ± 0.017
3992 kPa, Gas | – | 0.2108 ± 0.018
3993 kPa, Gas | – | 0.2174 ± 0.017
3994 kPa, Gas | – | 0.224 ± 0.018
3995 kPa, Gas | – | 0.2309 ± 0.018
3995 kPa, Liquid | 0.07164 ± 0.0061 | –
3996 kPa, Gas | – | 0.2389 ± 0.019
3997 kPa, Liquid | – | 0.2535 ± 0.02
3998 kPa, Liquid | – | 0.2389 ± 0.019
3999 kPa, Liquid | – | 0.2261 ± 0.018
4000 kPa, Liquid | 0.06921 ± 0.0055 | 0.2153 ± 0.017
4001 kPa, Liquid | – | 0.2051 ± 0.016
4002 kPa, Liquid | – | 0.196 ± 0.015
4003 kPa, Liquid | – | 0.1879 ± 0.015
4004 kPa, Liquid | – | 0.1801 ± 0.014
4005 kPa, Liquid | – | 0.1734 ± 0.014
4006 kPa, Liquid | – | 0.1669 ± 0.013
4007 kPa, Liquid | – | 0.1612 ± 0.012
4008 kPa, Liquid | – | 0.1563 ± 0.012
4009 kPa, Liquid | – | 0.1513 ± 0.013
4010 kPa, Liquid | 0.066 ± 0.0047 | 0.1467 ± 0.013
4011 kPa, Liquid | – | 0.1425 ± 0.013
4012 kPa, Liquid | – | 0.1387 ± 0.012
4014 kPa, Liquid | 0.06521 ± 0.0045 | –
4020 kPa, Liquid | 0.06438 ± 0.0043 | –
4025 kPa, Liquid | 0.06418 ± 0.0043 | –
4030 kPa, Liquid | 0.06394 ± 0.0042 | –
4035 kPa, Liquid | 0.06394 ± 0.0042 | –
4040 kPa, Liquid | 0.06389 ± 0.0042 | –
4045 kPa, Liquid | 0.06389 ± 0.0042 | –
4050 kPa, Liquid | 0.06389 ± 0.0042 | –
4055 kPa, Liquid | 0.06385 ± 0.0042 | –
4060 kPa, Liquid | 0.06385 ± 0.0042 | –
4080 kPa, Liquid | 0.06377 ± 0.0042 | –
4100 kPa, Liquid | 0.06375 ± 0.0042 | –
4120 kPa, Liquid | 0.06375 ± 0.0042 | –
4140 kPa, Liquid | 0.06377 ± 0.0042 | –
4160 kPa, Liquid | 0.06377 ± 0.0042 | –
4180 kPa, Liquid | 0.06377 ± 0.0042 | –
4200 kPa, Liquid | 0.06381 ± 0.0042 | –
4250 kPa, Liquid | 0.06392 ± 0.0042 | –
4275 kPa, Liquid | 0.06396 ± 0.0042 | –
4350 kPa, Liquid | 0.06412 ± 0.0042 | –
4400 kPa, Liquid | 0.06428 ± 0.0042 | –
4450 kPa, Liquid | 0.06442 ± 0.0042 | –
4500 kPa, Liquid | 0.06459 ± 0.0042 | –
4560 kPa, Liquid | 0.06484 ± 0.0042 | –
4580 kPa, Liquid | 0.0649 ± 0.0042 | –
4670 kPa, Liquid | 0.06519 ± 0.0042 | –
4690 kPa, Liquid | 0.06519 ± 0.0042 | –
